Results as given in US6087355A, “Cephalosporin antibiotics” (Microcide Pharmaceuticals, Inc., priority 1996, dated 2000).
Where a name gives a salt, the structure may show the parent alone.

What was measured:
Assay in all cases: In vitro MIC, agar dilution
Assay type in all cases: cell-based
[1] = system: S. haemolyticus 05(Meth^R); details: for MIC: Staphylococcus haemolyticus, read-out: minimum inhibitory concentration (MIC)
How it was run: (§1)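 Strains were spotted at roughly 10^4 cfu onto drug-containing Mueller-Hinton agar. MIC was read as the lowest inhibitory concentration after overnight incubation at 35-36 °C.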

E. coli ATCC 25992 = details: for MIC: Escherichia coli, ATCC25992, read-out: minimum inhibitory concentration (MIC)
How it was run: as §1

[2] = system: S. aureus Spain #356(Meth^R); details: for MIC: Staphylococcus aureus, read-out: minimum inhibitory concentration (MIC)
How it was run: as §1

S. aureus ATCC 29213 = details: for MIC: Staphylococcus aureus, ATCC29213, read-out: minimum inhibitory concentration (MIC)
How it was run: as §1

[3] = system: S. aureus PC1(Meth^S)(lac^+); details: for MIC: Staphylococcus aureus, read-out: minimum inhibitory concentration (MIC)
How it was run: as §1

[4] = system: S. aureus ATCC 33593(Meth^R); details: for MIC: Staphylococcus aureus, ATCC33593, read-out: minimum inhibitory concentration (MIC)
How it was run: as §1

[5] = system: S. aureus 76(Meth^R)(lac^+); details: for MIC: Staphylococcus aureus, read-out: minimum inhibitory concentration (MIC)
How it was run: as §1

E. faecium A491(Amp^R) = details: for MIC: Enterococcus faecium, read-out: minimum inhibitory concentration (MIC)
How it was run: as §1

E. faecium VanA(Van^R) = details: for MIC: Enterococcus faecium, read-out: minimum inhibitory concentration (MIC)
How it was run: as §1

E. faecium ATCC 35667 = details: for MIC: Enterococcus faecium, ATCC35667, read-out: minimum inhibitory concentration (MIC)
How it was run: as §1

P. aeruginosa ATCC 27853 = details: for MIC: Pseudomonas aeruginosa, ATCC27853, read-out: minimum inhibitory concentration (MIC)
How it was run: as §1

[6] = system: S. aureus ATCC 13709(Meth^S); details: for MIC: Staphylococcus aureus, ATCC13709, S. aureus ATCC 13709(Meth^S), read-out: minimum inhibitory concentration (MIC); for minimum inhibitory concentration (MIC): S. aureus ATCC 13709(Meth^S)
How it was run: as §1

E. faecalis VanB(Van^R) = details: for MIC: Enterococcus faecalis, read-out: minimum inhibitory concentration (MIC)
How it was run: as §1

E. faecalis ATCC 29212 = details: for MIC: Enterococcus faecalis, ATCC29212, read-out: minimum inhibitory concentration (MIC)
How it was run: as §1

[7] = system: S. aureus Col(Meth^R)(lac^-); details: for MIC: Staphylococcus aureus, read-out: minimum inhibitory concentration (MIC)
How it was run: (§2)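 Two-fold dilutions (128 to ≤0.25 μg/mL, in duplicate) were poured into Mueller-Hinton agar. Log-phase broth cultures were spot-inoculated at about 10^4 cfu per spot and incubated 35-36°C for 16-20 hours; the MIC was the lowest concentration inhibiting growth. Col is a high-level PBP2a producer; Col 8A is its isogenic PBP2a-lacking partner.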

[8] = system: S. aureus Col8A(Meth^S)(lac^-); details: S. aureus Col8A(Meth^S)(lac^-); for MIC: Staphylococcus aureus, read-out: minimum inhibitory concentration (MIC)
How it was run: as §2

| Molecule | MIC [1] [µg/mL] | MIC (E. coli ATCC 25992) [µg/mL] | MIC [2] [µg/mL] | MIC (S. aureus ATCC 29213) [µg/mL] | MIC [3] [µg/mL] | MIC [4] [µg/mL] | MIC [5] [µg/mL] | MIC (E. faecium A491(Amp^R)) [µg/mL] | MIC (E. faecium VanA(Van^R)) [µg/mL] | MIC (E. faecium ATCC 35667) [µg/mL] | MIC (P. aeruginosa ATCC 27853) [µg/mL] | MIC [6] [µg/mL] | MIC (E. faecalis VanB(Van^R)) [µg/mL] | MIC (E. faecalis ATCC 29212) [µg/mL] | MIC [7] [µg/mL] | MIC [8] [µg/mL] | minimum inhibitory concentration (MIC) [1] [µg/mL] | minimum inhibitory concentration (MIC) (E. coli ATCC 25992) [µg/mL] | minimum inhibitory concentration (MIC) [2] [µg/mL] | minimum inhibitory concentration (MIC) (S. aureus ATCC 29213) [µg/mL] | also measured |
| --- | --- | --- | --- | --- | --- | --- | --- | --- | --- | --- | --- | --- | --- | --- | --- | --- | --- | --- | --- | --- | --- |
| NCCOCc1cnccc1SC1=C(C(=O)O)N2C(=O)[C@@H](NC(=O)/C(=N\O)c3nc(N)sc3Cl)[C@H]2SC1 [Cmpd 40, (7R)-7-[(Z)-2-(2-amino-5-chlorothiazol-4-yl)-2-(hydroxyimino)acetamido]-3-(3-(2-aminoethoxymethyl)pyrid-4-ylthio)-3-cephem-4-carboxylate, trifluoroacetic acid salt] | 4 | 8 | 2 | 0.25 | 0.13 | 2 | 2 | 16 | 2 | 1 | > 32 | 0.25 | 0.25 | 0.13 | 2 | 0.5 |  |  |  |  |  |
| O=C(Cc1ccccc1)N[C@@H]1C(=O)N2C(C(=O)O)=C(Sc3snnc3CSC3CCNC3)CS[C@H]12 (stereo partly drawn) [Cmpd 6, (7R)-7-[(phenylacetyl)amino]-3-[4-(3-pyrrolidinothiomethyl)-1,2,3-thiadiazol-5-ylthio]-3-cephem-4-carboxylate, trifluoroacetic acid salt] | 16 | > 32 | 8 | 0.25 | 0.5 | 8 | 8 | > 32 | 8 | 2 | > 32 | ≤ 0.06 | 8 | 0.5 | 2 | 0.13 |  |  |  |  |  |
| N=CNCCSCc1cnccc1SC1=C(C(=O)O)N2C(=O)[C@@H](NC(=O)/C(=N\O)c3csc(N)n3)[C@H]2SC1.O=C(O)C(F)(F)F [Cmpd 25, (7R)-7-[(Z)-2-(aminothiazol-4-yl)-2-(hydroxyimino)acetamido]-3-(3-(N-formamidoyl)aminoethylthiomethylpyrid-4-ylthio)-3-cephem-4-carboxylate, trifluoroacetic acid salt] |  |  |  |  |  |  |  |  |  |  |  |  |  |  |  |  | 2 | 4 | 2 | 0.25 | minimum inhibitory concentration (MIC) [3]: 0.25 µg/mL; minimum inhibitory concentration (MIC) [4]: 1 µg/mL; minimum inhibitory concentration (MIC) [5]: 2 µg/mL; minimum inhibitory concentration (MIC) (E. faecium A491(Amp^R)): 32 µg/mL; minimum inhibitory concentration (MIC) (E. faecium VanA(Van^R)): 2 µg/mL; minimum inhibitory concentration (MIC) (E. faecium ATCC 35667): 1 µg/mL; minimum inhibitory concentration (MIC) (P. aeruginosa ATCC 27853): > 32 µg/mL; minimum inhibitory concentration (MIC) [6]: 0.25 µg/mL; minimum inhibitory concentration (MIC) (E. faecalis VanB(Van^R)): 0.13 µg/mL; minimum inhibitory concentration (MIC) (E. faecalis ATCC 29212): 0.13 µg/mL; minimum inhibitory concentration (MIC) [7]: 1 µg/mL; minimum inhibitory concentration (MIC) [8]: 0.25 µg/mL |
| NCC(=O)NCCCSCc1cnccc1SC1=C(C(=O)O)N2C(=O)[C@@H](NC(=O)/C(=N\O)c3nc(N)sc3Cl)[C@H]2SC1 [Cmpd 35, (7R)-7-[(Z)-2-(2-amino-5-chlorothiazol-4-yl)-2-(hydroxyimino)acetamido]-3-[3-(glycyl)aminopropylthiomethylpyrid-4-ylthio]-3-cephem-4-carboxylate, trifluoroacetic acid salt] | 4 | 8 | 2 | 0.25 | 0.5 | 2 | 2 | 4 | 0.5 | 0.25 | > 32 | 0.25 | 0.25 | ≤ 0.06 | 2 | 0.25 |  |  |  |  |  |
| NC/C=C\Cc1cnccc1SC1=C(C(=O)O)N2C(=O)[C@@H](NC(=O)/C(=N\O)c3nc(N)sc3Cl)[C@H]2SC1.O=C(O)C(F)(F)F [Cmpd 50, (7R)-7-[(Z)-2-(2-amino-5-chlorothiazol-4-yl)-2-(hydroxyimino)acetamido]-3-(3-(4-amino-2-Z-buten-1-yl)pyrid-4-ylthio)-3-cephem-4-carboxylate, trifluoroacetic acid salt] |  |  |  |  |  |  |  |  |  |  |  |  |  |  |  |  | 4 | 4 | 2 | 0.13 | minimum inhibitory concentration (MIC) [3]: 0.25 µg/mL; minimum inhibitory concentration (MIC) [4]: 2 µg/mL; minimum inhibitory concentration (MIC) [5]: 2 µg/mL; minimum inhibitory concentration (MIC) (E. faecium A491(Amp^R)): 16 µg/mL; minimum inhibitory concentration (MIC) (E. faecium VanA(Van^R)): 2 µg/mL; minimum inhibitory concentration (MIC) (E. faecium ATCC 35667): 1 µg/mL; minimum inhibitory concentration (MIC) (P. aeruginosa ATCC 27853): > 32 µg/mL; minimum inhibitory concentration (MIC) [6]: 0.13 µg/mL; minimum inhibitory concentration (MIC) (E. faecalis VanB(Van^R)): 0.5 µg/mL; minimum inhibitory concentration (MIC) (E. faecalis ATCC 29212): 0.13 µg/mL; minimum inhibitory concentration (MIC) [7]: 2 µg/mL; minimum inhibitory concentration (MIC) [8]: 0.25 µg/mL |
| NCCSCc1cnccc1SC1=C(C(=O)O)N2C(=O)[C@@H](NC(=O)Cc3ccccc3)[C@H]2SC1.O=C(O)C(F)(F)F [Cmpd 9, (7R)-7-[(phenylacetyl)amino]-3-(3-aminoethylthiomethylpyrid-4-ylthio)-3-cephem-4-carboxylate, trifluoroacetic acid salt] | 16 | > 32 | 4 | 0.25 | 1 | 4 | 4 | > 32 | 4 | 1 | > 32 | ≤ 0.06 | 2 | 1 | 1 | 0.13 |  |  |  |  |  |
| Nc1nc(/C(=N/O)C(=O)N[C@@H]2C(=O)N3C(C(=O)O)=C(Sc4ccncc4CSC4CCNC4)CS[C@H]23)c(Cl)s1 (stereo partly drawn) [Cmpd 42, (7R)-7-[(Z)-2-(2-amino-5-chlorothiazol-4-yl)-2-(hydroxyimino)acetamido]-3-(3-(pyrrolidin-3-ylthiomethyl)pyrid-4-ylthio)-3-cephem-4-carboxylate, trifluoroacetic acid salt] | 2 | 2 | 1 | 0.13 | 0.13 | 1 | 1 | 4 | 0.5 | 0.25 | 32 | 0.13 | ≤ 0.06 | ≤ 0.06 | 0.5 | 0.25 |  |  |  |  |  |
| (7R)-7-[(Z)-2-(aminothiazol-4-yl)-2-(hydroxyimino)acetamido]-3-[(guanidinoethylaminoethylthiomethyl)-1,2,3-thiadiazol-5-ylthio]-3-cephem-4-carboxylate, trifluoroacetic acid salt [Cmpd 12] |  |  |  |  |  |  |  |  |  |  |  |  |  |  |  |  | 2 | 8 | 2 | 0.5 | minimum inhibitory concentration (MIC) [3]: 0.5 µg/mL; minimum inhibitory concentration (MIC) [4]: 2 µg/mL; minimum inhibitory concentration (MIC) [5]: 2 µg/mL; minimum inhibitory concentration (MIC) (E. faecium A491(Amp^R)): > 32 µg/mL; minimum inhibitory concentration (MIC) (E. faecium VanA(Van^R)): 4 µg/mL; minimum inhibitory concentration (MIC) (E. faecium ATCC 35667): 1 µg/mL; minimum inhibitory concentration (MIC) (P. aeruginosa ATCC 27853): > 32 µg/mL; minimum inhibitory concentration (MIC) [6]: 0.25 µg/mL; minimum inhibitory concentration (MIC) (E. faecalis VanB(Van^R)): 0.5 µg/mL; minimum inhibitory concentration (MIC) (E. faecalis ATCC 29212): 0.25 µg/mL; minimum inhibitory concentration (MIC) [7]: 2 µg/mL; minimum inhibitory concentration (MIC) [8]: 0.5 µg/mL |
